The values that follow come from ChEMBL document CHEMBL1914432, “Discovery of highly potent small molecule Hepatitis C Virus entry inhibitors” (Bioorg Med Chem Lett, 2011).

Calls of active or inactive are those of the source. No cut-off for these calls is given here.

One series relates to Hepatitis C virus. The series is described as follows: Antiviral activity against chronic Hepatitis C virus type 2a infected in human HuH7 cells by Renilla luciferase reporter gene assay. The note with it: genotype 2a, Huh-7. It is filed as functional, organism-based, Hepacivirus hominis.
Series [1] relates to Plasma. The series is described as follows: Metabolic stability in rat plasma. The class given is ADME, cell-free.
The target in series [2] is T1, Scavenger receptor class B member 1 (Homo sapiens) (UniProt Q8WTV0).
T1 sequence (whole entry): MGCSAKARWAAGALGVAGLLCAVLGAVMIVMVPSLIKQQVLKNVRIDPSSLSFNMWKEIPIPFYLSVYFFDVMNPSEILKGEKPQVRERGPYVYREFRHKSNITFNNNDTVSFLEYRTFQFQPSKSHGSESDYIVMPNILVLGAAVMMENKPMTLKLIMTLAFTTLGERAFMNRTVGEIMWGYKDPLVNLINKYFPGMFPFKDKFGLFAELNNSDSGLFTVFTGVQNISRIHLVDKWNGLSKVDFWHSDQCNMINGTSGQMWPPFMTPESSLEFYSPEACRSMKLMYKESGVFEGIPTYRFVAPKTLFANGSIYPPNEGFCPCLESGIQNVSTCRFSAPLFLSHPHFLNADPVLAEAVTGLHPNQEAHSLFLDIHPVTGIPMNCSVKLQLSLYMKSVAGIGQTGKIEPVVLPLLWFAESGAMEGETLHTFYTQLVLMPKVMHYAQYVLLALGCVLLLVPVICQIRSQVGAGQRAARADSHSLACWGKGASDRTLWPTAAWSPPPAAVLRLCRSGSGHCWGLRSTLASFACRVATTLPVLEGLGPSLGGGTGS
The series is described as follows: Inhibition of human SRB1-mediated Hepatitis C virus genotype 2a entry into human 293T cells by immunoblotting. The class given is cell-based. For orientation: Immunoblotting shows a protein as a band on a membrane.

Series [3] can be described thus: Oral bioavailability in rat at 20 mg/kg. It is filed as ADME, organism-based. The note with it: in vivo.
Series [4] in a line: Clearance in rat at 2 mg/kg, iv and 20 mg/kg, po. It is filed as ADME, organism-based. The note with it: in vivo.
A short description of series [5]: Half life in rat at 2 mg/kg, iv and 20 mg/kg, po. The class given is ADME, organism-based. The note with it: in vivo.
The nature of series [6]: AUC (all) in rat at 2 mg/kg, iv and 20 mg/kg, po. It is filed as ADME, organism-based. The note with it: plasma.
The nature of series [7]: Apparent volume of distribution in rat at 2 mg/kg, iv and 20 mg/kg, po. The class given is ADME, organism-based. The following applies: in vivo, read-out: Vz.
The nature of series [8]: Cmax in rat at 2 mg/kg, iv and 20 mg/kg, po. The class given is ADME, organism-based. The following applies: in vivo.
In series [9] the test system is Plasma. The series is described as follows: Drug metabolism in rat plasma assessed as plasma esterase-mediated formation of 9-(3-(4,6-dimethoxypyrimidin-2-ylamino)propyl-2,3,4,9-tetrahydro-1H-carbazole-6-carboxylic acid by LC-MS analysis. The class given is ADME, cell-free.

The IC50 is the concentration needed to halve the response being measured. High values mean weaker potency in that assay, low ones greater potency in that assay. With `COC(=O)c1ccc2c(c1)c1c(n2CCCN(C)c2nc(OC)cc(OC)n2)CCCC1`, half-maximal inhibition in the series on Hepatitis C virus (IC50) required 0.0015 µM.

In the series on Hepatitis C virus, `COC(=O)c1ccc2c(c1)c1c(n2CCCn2cncc2C)CCCC1` registered an IC50 of 0.31 µM.

For `COC(=O)c1ccc2c(c1)c1c(n2CCCS(=O)(=O)c2ccccc2)CCCC1`, in the series with Hepatitis C virus, it took 0.05 µM to reach half-maximal inhibition (IC50). Turning to `COC(=O)c1ccc2c(c1)c1c(n2CCCN2C[C@@H](C)N[C@@H](C)C2)CCCC1`, the IC50 in the series with Hepatitis C virus was found to be 0.04 µM.

As for `COC(=O)c1ccc2c(c1)c1c(n2CC2CCCN(c3nc(OC)cc(OC)n3)C2)CCCC1` (stereo not given), in the series on Hepatitis C virus, the midpoint of inhibition, the IC50, lay at 0.05 µM. For the molecule `COC(=O)c1ccc2c(c1)c1c(n2CCCS(=O)(=O)N(C)C)CCCC1`, it took 0.005 µM to reach half-maximal inhibition in the series on Hepatitis C virus (IC50). On to `CCN(CC)C(=O)c1ccc2c(c1)c1c(n2CCCNc2nc(OC)cc(OC)n2)CCCC1`, for which, in the series with Hepatitis C virus, the IC50 amounted to 0.05 µM. For the same molecule, the Stability result in the series with Plasma [1] was “Stable”. In turn, `CCc1cc(CC)nc(OCCCn2c3c(c4cc(C(=O)OC)ccc42)CCCC3)n1` had a half-maximal inhibitory concentration (IC50) in the series with Hepatitis C virus of 0.0015 µM.

In the series with Hepatitis C virus, `COC(=O)c1ccc2c(c1)c1c(n2CCCN2C[C@@H](C)O[C@@H](C)C2)CCCC1` displayed an IC50 of 0.025 µM. Take `COC(=O)c1ccc2c(c1)c1c(n2CCCN2CCCC(C(=O)N(C)C)C2)CCCC1` (stereo not given): the half-inhibitory concentration (IC50) in the series with Hepatitis C virus came to 0.05 µM.

`COC(=O)c1ccc2c(c1)c1c(n2C2CCN(c3nc(OC)cc(OC)n3)CC2)CCCC1`: the half-inhibitory concentration (IC50) in the series on Hepatitis C virus was 0.3 µM. The molecule `COC(=O)c1ccc2c(c1)c1c(n2CCCNc2cc(C)nc(Cl)n2)CCCC1` showed an IC50 with Hepatitis C virus of 0.03 µM. The same measure, in the same setting: to `COC(=O)c1ccc2c(c1)c1c(n2CCCOc2nc(C)cc(C(F)(F)F)n2)CCCC1` belongs 0.005 µM; to `COC(=O)c1ccc2c(c1)c1c(n2CCCC(=O)N(C)C)CCCC1`, 0.3 µM.

For the molecule `COc1cc(OC)nc(NCCCn2c3c(c4cc(C(=O)O)ccc42)CCCC3)n1`, the result in the series on Hepatitis C virus (Hepacivirus hominis) was inactive. Besides, in [2], the inhibition result was “inactive”. The molecule `COC(=O)c1ccc2c(c1)c1c(n2CCCOc2nc(OC)cc(OC)n2)CCCC1` yielded an IC50 in the series with Hepatitis C virus of 0.0006 µM. `COC(=O)c1ccc2c(c1)c1c(n2CCCNS(=O)(=O)c2cc(F)cc(F)c2)CCCC1` registered an IC50 in the series on Hepatitis C virus of 0.015 µM. On the same count and under the same terms, with `COC(=O)c1ccc2c(c1)c1c(n2CCCN2CCOCC2)CCCC1` the figure was 0.15 µM; with `COC(=O)c1ccc2c(c1)c1c(n2CCc2nc3ccccc3[nH]2)CCCC1`, 0.005 µM; with `COC(=O)c1ccc2c(c1)c1c(n2CCCOc2cc(Cl)nc(C)n2)CCCC1`, 0.0015 µM. Same read-out and setting: with `COC(=O)c1ccc2c(c1)c1c(n2CCCn2ccnc2)CCCC1` the figure was 0.17 µM; with `COC(=O)c1ccc2c(c1)c1c(n2CCCS(=O)(=O)N2CCOCC2)CCCC1`, 0.015 µM; with `COC(=O)c1ccc2c(c1)c1c(n2CCCNc2nccc(OC)n2)CCCC1`, 0.015 µM. One may read the bioavailability as the share of a dose that reaches the circulation, judged against a reference dose that is usually intravenous. A lower bioavailability goes with little systemic uptake. One may read the half-life as the time in which the quantity being followed falls by half. A low value points to rapid decline. By AUC is commonly meant the area under the concentration-time curve, a measure of exposure. A high value points to more exposure. What is called Cmax is the highest concentration seen after dosing. In turn, `COc1cc(OC)nc(NCCCn2c3c(c4cc(C(=O)N(C)C)ccc42)CCCC3)n1` showed a bioavailability in series [3] of 0.6%. Also, in series [4], the clearance is 45 mL/min/kg. The molecule also gave a half-life in [5] of 33 min. This molecule also returned an IC50 with Hepatitis C virus of 0.03 µM. In series [6], the exposure (AUC) is 41 ng·h/mL. In the series with Plasma [1], the Stability result is given as “Stable”. Moreover, the Vd in series [7] worked out at 2.05 L/kg. Besides, in series [2], the inhibition entry was “Active”. In series [8], this molecule registered a Cmax of 51 ng/mL. On to `COC(=O)c1ccc2c(c1)c1c(n2CCCNS(=O)(=O)C(C)C)CCCC1`, for which the IC50 in the series with Hepatitis C virus was found to be 0.05 µM. As for `COC(=O)c1ccc2c(c1)c1c(n2CCCS(=O)(=O)N2CCCCC2)CCCC1`, half-maximal inhibition with Hepatitis C virus (IC50) required 0.03 µM. As for `COC(=O)c1ccc2c(c1)c1c(n2CCCNc2ncccn2)CCCC1`, in the series with Hepatitis C virus, it took 0.05 µM to reach half-maximal inhibition (IC50). Still for that read-out and setting: to `COC(=O)c1ccc2c(c1)c1c(n2CCCS(=O)(=O)N2C[C@@H](C)O[C@@H](C)C2)CCCC1` belongs 0.15 µM.

For `COC(=O)c1ccc2c(c1)c1c(n2CCCNc2nc(OC)nc(OC)n2)CCCC1`, in the series on Hepatitis C virus, the IC50 turned out to be 0.015 µM. For the molecule `COC(=O)c1ccc2c(c1)c1c(n2CCCS(=O)(=O)N2CCC2)CCCC1`, in the series with Hepatitis C virus, the IC50 was 0.015 µM. The same measure, in the same setting: with `COC(=O)c1ccc2c(c1)c1c(n2CCCCNc2nc(OC)cc(OC)n2)CCCC1` the figure was 0.03 µM. In the series with Hepatitis C virus, `COC(=O)c1ccc2c(c1)c1c(n2CCCN2CCNC(=O)C2)CCCC1` had an IC50 of 0.065 µM. In the case of `COC(=O)c1ccc2c(c1)c1c(n2CCc2nc3cc(C)c(C)cc3[nH]2)CCCC1`, in the series with Hepatitis C virus, the IC50 was determined as 0.005 µM. As for `COC(=O)c1ccc2c(c1)c1c(n2CCCn2cnc3ncncc32)CCCC1`, in the series with Hepatitis C virus, the IC50 worked out at 0.05 µM. With `CNC(=O)c1ccc2c(c1)c1c(n2CCCNc2nc(OC)cc(OC)n2)CCCC1`, the bioavailability in [3] is 0.8%. For the same molecule, the clearance in series [4] was 58.2 mL/min/kg. Moreover, the half-life in series [5] is 28.2 min. The same molecule gave an IC50 with Hepatitis C virus of 0.01 µM. The AUC in [6] is 45 ng·h/mL. Moreover, the Stability result with Plasma [1] is given as “Stable”. For the same molecule, in series [7], the Vd was determined as 1.33 L/kg. For the same molecule, in series [2], the inhibition entry was “Active”. In series [8], this molecule had a Cmax of 51 ng/mL. Turning to `COC(=O)c1ccc2c(c1)c1c(n2CCCNc2nc(OC)cc(OC)n2)CCCC1`, the Drug metabolism result in the series on Plasma [9] was “Active”. Further, the IC50 with Hepatitis C virus was 0.0015 µM. The inhibition result in series [2] is “Active”. For `COC(=O)c1ccc2c(c1)c1c(n2CCS(=O)(=O)N(C)C)CCCC1`, the IC50 in the series on Hepatitis C virus was over 1 µM. In series [3], `COc1cc(OC)nc(NCCCn2c3c(c4cc(C(=O)OC(C)C)ccc42)CCCC3)n1` showed a bioavailability of 19%. Besides, the clearance in series [4] is 71.8 mL/min/kg. In [5], this molecule had a half-life of 74.4 min. This molecule also came in with a half-maximal inhibitory concentration (IC50) with Hepatitis C virus of 0.01 µM. In series [6], this molecule gave an AUC of 896 ng·h/mL. In addition, the Stability entry in the series with Plasma [1] is reported as “Stable”. Also, the Vd in series [7] came out at 17.6 L/kg. Besides, the inhibition entry in series [2] was “Active”. This molecule gave a Cmax in series [8] of 547 ng/mL. `COc1cc(OC)nc(NCCCn2c3c(c4cc(C(=O)NC(C)C)ccc42)CCCC3)n1`: in the series on Hepatitis C virus, the 50% inhibitory concentration (IC50) was 0.15 µM. The Stability result in the series with Plasma [1] is reported as “Stable”. For the molecule `COC(=O)c1ccc2c(c1)c1c(n2CC2CCN(c3nc(OC)cc(OC)n3)CC2)CCCC1`, the midpoint of inhibition in the series on Hepatitis C virus, the IC50, lay at 0.015 µM.

Turning to `COC(=O)c1ccc2c(c1)c1c(n2CCCNc2nc(C)cc(C(=O)OC)n2)CCCC1`, half-maximal inhibition in the series on Hepatitis C virus (IC50) required 0.03 µM.
